Measured values from US20080221045A1, “Hepatic Function-Improving Agent” (Kabushiki Kaisha Hayashibara Seibutsu Kagaku Kenkyujo, priority 2004, published 2008).

How the values were obtained:
[1] = test system: hepatic functions; assay: Administration test of α-glucosyl-hesperidin on hamsters (cholesterol-supplemented feed), serum GOT and GPT; type: in vivo, golden hamsters; conditions: for Serum GOT / Serum GPT: 0.25 mmole/kg/day by stomach sonde, 5 weeks, last 3 weeks feed with 1% cholesterol, average ± SD; for Serum GOT: distilled water control 171 ± 46, before 46 ± 8; for Serum GPT: distilled water control 418 ± 106, before 81 ± 18; for serum levels of GOT and GPT compared with the distilled water group (control 1): 0.25 mmole/kg/day
Protocol: The animal experiment using hamsters was performed to investigate the influences of the intake of α-glucosyl-hesperidin on hepatic functions.
A group of five golden hamsters of five weeks old was fed on liberal amount of “NMF Lab Animal Diet Powder” (produced by Oriental Yeast Co., Ltd.) with the administration of “αG-HESPERIDIN PS®” (a powdery α-glucosyl-hesperidin containing 82.8% of α-glucosyl-hesperidin, commercialized by Hayashibara Shoji, Inc.) dissolved in distilled water. α-Glucosyl-hesperidin was administered to the hamsters through a stomach sonde at a dose of 0.25 mmole (193 mg)/kg/body weight every day. After two-week administrations of α-glucosyl-hesperidin, the hamsters were fed for additional three weeks in the same way as described above except that their feed was supplemented with 1% by weight of cholesterol. At four hours after the final administrations, the hamsters were anesthetized and under went laparotomy, and their large-venous blood samples were taken. After the separation of the hamsters' serums by a conventional method, the levels of GOT and GPT were measured. As the control 1, another group was fed and its blood samples were taken in the same way except that distilled water instead of α-glucosyl-hesperidin was administered to the hamsters. As the control 2, a third group was fed and their blood samples were taken in the same way except that hesperidin (a regent grade specimen, commercialized by Wako Pure Chemical Industries, Ltd.) instead of α-glucosyl-hesperidin suspended in distilled water was administered to the hamsters at a dose of 0.25 mmole (153 mg)/kg/body weight. The other group was fed on liberal amount of “NMF Lab Animal Diet Powder” with no administration of the test articles and their blood samples were taken in the same way as describe above, and the serum levels of GOT and GPT were measured to obtain the data before the administrations.

[2] = mammals including humans with an elevated TG level; Yamada et al. 2003, Miwa et al. 2004; cited from earlier work

Row | SMILES | Serum GOT [1] [IU/L] | Serum GPT [1] [IU/L] | serum levels of GOT and GPT compared with the distilled water group (control 1) ([1]; hamsters) | effect on blood triglyceride (TG) level [2] | effect for keeping hepatic-function indexes at a lower level, compared with hesperidin ([1]; hamsters, equal molar dose 0.25 mmole/kg/day)
1 | COc1ccc([C@@H]2CC(=O)c3c(O)cc(O[C@@H]4O[C@H](CO[C@@H]5O[C@@H](C)[C@H](O)[C@@H](O)[C@H]5O)[C@@H](O)[C@H](O)[C@H]4O)cc3O2)cc1O [Hesperidin, hesperidin, reference compound] | 101 ± 30 | 298 ± 76 | kept lower | – | –
2 | COc1ccc(C2CC(=O)c3c(O)cc(O[C@@H]4OC(CO[C@@H]5OC(C)[C@H](O)C(O)C5O)[C@@H](COC[C@H]5OC(CO)[C@@H](O)C(O)C5O)C(O)C4O)cc3O2)cc1O (stereo partly drawn) [α-Glucosyl-hesperidin, α-glucosyl-hesperidin] | 66 ± 44 | 226 ± 74 | kept lower | marked effect of reducing blood triglyceride | greater effect than that of hesperidin
